In US20240294541A1, “COMPOUNDS CONSTITUTING C20-MODIFIED SALINOMYCIN DERIVATIVES, A METHOD FOR OBTAINING THE SAME, A COMPOSITION CONTAINING THE SAME AND A USE OF SAID COMPOUNDS” (FILECLO SPOLKA Z OGRANICZONA ODPOWIEDZIALNOSCIA, priority 2021, published 2024):

How the values were obtained:
Assay type in all cases: cell-based
[1] = system: PLC/PRF/5 (human liver cancer); test: cells; details: for IC50: Homo sapiens, PLC-PRF-5, 72 h with compound, SRB, n/a = non-active compound, read-out: PLC/PRF/5 IC50; for PLC/PRF/5 SI: selectivity coefficient vs normal BALB/3T3 cells
[2] = system: Hs294T (human melanoma); test: cells; details: for IC50: Homo sapiens, Hs 294T, 72 h with compound, SRB, n/a = non-active compound, read-out: Hs294T IC50; for Hs294T SI: selectivity coefficient vs normal BALB/3T3 cells
[3] = system: A2780Cis (cisplatin-resistant human ovarian cancer); test: In vitro cytotoxicity, SRB assay, A2780Cis; details: for IC50: Homo sapiens, A2780cis, 72 h, read-out: A2780Cis IC50 (nM)
[4] = system: NCI-H23 (human lung cancer); test: In vitro cytotoxicity, SRB assay, NCI-H23; details: for IC50: Homo sapiens, NCI-H23, 72 h with compound, SRB, n/a = non-active compound, read-out: NCI-H23 IC50; for NCI-H23 SI: selectivity coefficient vs normal BALB/3T3 cells
[5] = system: MIA PaCa-2 (human pancreatic cancer); test: cells; details: for IC50: Homo sapiens, MIA PaCa-2, 72 h with compound, SRB, n/a = non-active compound, read-out: MIA PaCa-2 IC50; for MIA PaCa-2 SI: selectivity coefficient vs normal BALB/3T3 cells
[6] = system: SNU-16 (human gastric cancer); test: cells; details: for IC50: Homo sapiens, SNU-16, 72 h with compound, MTT, n/a = non-active compound, read-out: SNU-16 IC50; for SNU-16 SI: selectivity coefficient vs normal BALB/3T3 cells
[7] = system: A375 (human melanoma); test: In vitro cytotoxicity, SRB assay, A375; details: for IC50: Homo sapiens, A-375, 72 h with compound, SRB, n/a = non-active compound, read-out: A375 IC50; for A375 SI: selectivity coefficient vs normal BALB/3T3 cells
[8] = system: A2780 (human ovarian cancer); test: In vitro cytotoxicity, SRB assay, A2780; details: for IC50: Homo sapiens, A2780, 72 h with compound, SRB, n/a = non-active compound, read-out: A2780 IC50; for A2780 SI: selectivity coefficient vs normal BALB/3T3 cells
[9] = system: BALB/3T3 (normal mouse fibroblasts); test: In vitro cytotoxicity, SRB assay, normal BALB/3T3 fibroblasts; details: Mus musculus, BALB/3T3; normal cells; 72 h with compound, SRB; n/a = non-active compound; read-out: BALB/3T3 IC50
[10] = system: KG-1 (human acute myeloid leukaemia); test: In vitro cytotoxicity, MTT assay, KG-1; details: for IC50: Homo sapiens, 72 h with compound, MTT, n/a = non-active compound; for KG-1 SI: selectivity coefficient vs normal BALB/3T3 cells
[11] = system: PFSK-1 (malignant primitive neuroectodermal tumour); test: In vitro cytotoxicity, SRB assay, PFSK-1; details: for IC50: Homo sapiens, PFSK-1, 72 h with compound, SRB, n/a = non-active compound, read-out: PFSK-1 IC50; for PFSK-1 SI: selectivity coefficient vs normal BALB/3T3 cells

| SMILES | IC50 [1] | PLC/PRF/5 SI [1] | IC50 [2] | Hs294T SI [2] | A2780Cis RI [3] | A2780Cis SI [3] | IC50 [3] | IC50 [4] | NCI-H23 SI [4] | IC50 [5] | MIA PaCa-2 SI [5] | IC50 [6] | SNU-16 SI [6] | IC50 [7] | A375 SI [7] | IC50 [8] | A2780 SI [8] | IC50 [9] | IC50 [10] | KG-1 SI [10] | further results |
| --- | --- | --- | --- | --- | --- | --- | --- | --- | --- | --- | --- | --- | --- | --- | --- | --- | --- | --- | --- | --- | --- |
| CC[C@@H](C(=O)[C@@H](C)[C@@H](O)[C@H](C)[C@@H]1O[C@@H]([C@@H](CC)C(=O)O)CC[C@@H]1C)[C@H]1O[C@]2(C=C[C@@H](NC(=S)Nc3ccc(C)cc3)[C@]3(CC[C@@](C)([C@H]4CC[C@](O)(CC)[C@H](C)O4)O3)O2)[C@H](C)C[C@@H]1C [FLC-00382-1] | 0.00515 µM | 10.0 | 0.0611 µM | 0.8 | 0.4 | 157.5 | 0.33 nM | 0.00392 µM | 13.2 | 0.0365 µM | 1.4 | 0.00515 µM | 10.0 | 0.0442 µM | 1.2 | 0.00084 µM | 61.4 | 0.0516 µM | 0.00984 µM | 5.2 | IC50 [11]: 0.00375 µM; PFSK-1 SI [11]: 13.8 |
| CCCCCCCNC(=O)N[C@@H]1C=C[C@]2(O[C@H]([C@@H](CC)C(=O)[C@@H](C)[C@@H](O)[C@H](C)[C@@H]3O[C@@H]([C@@H](CC)C(=O)O)CC[C@@H]3C)[C@@H](C)C[C@H]2C)O[C@@]12CC[C@@](C)([C@H]1CC[C@](O)(CC)[C@H](C)O1)O2 [FLC-00350-1] | 0.023 µM | 4.5 | 0.419 µM | 0.2 | 0.9 | 44.9 | 2.3 nM | 0.101 µM | 1.0 | 0.0374 µM | 2.8 | 0.0182 µM | 5.7 | 0.251 µM | 0.4 | 0.00246 µM | 42.0 | 0.103 µM | 0.0358 µM | 2.9 | IC50 [11]: 0.00725 µM; PFSK-1 SI [11]: 14.2 |
| C=CCNC(=O)N[C@@H]1C=C[C@]2(O[C@H]([C@@H](CC)C(=O)[C@@H](C)[C@@H](O)[C@H](C)[C@@H]3O[C@@H]([C@@H](CC)C(=O)O)CC[C@@H]3C)[C@@H](C)C[C@H]2C)O[C@@]12CC[C@@](C)([C@H]1CC[C@](O)(CC)[C@H](C)O1)O2 [FLC-00353-1] | 0.0315 µM | 7.2 | 0.612 µM | 0.4 | 1.1 | 180.6 | 1.26 nM | 0.41 µM | 0.6 | 0.0289 µM | 7.8 | 0.0886 µM | 2.6 | 0.107 µM | 2.1 | 0.00114 µM | 199.8 | 0.227 µM | 0.0343 µM | 6.6 | IC50 [11]: 0.0134 µM; PFSK-1 SI [11]: 16.9 |
| CC[C@@H](C(=O)[C@@H](C)[C@@H](O)[C@H](C)[C@@H]1O[C@@H]([C@@H](CC)C(=O)O)CC[C@@H]1C)[C@H]1O[C@]2(C=C[C@@H](NC(=O)NCc3ccccc3)[C@]3(CC[C@@](C)([C@H]4CC[C@](O)(CC)[C@H](C)O4)O3)O2)[C@H](C)C[C@@H]1C [FLC-00337-1] | 0.0414 µM | 2.9 | 0.549 µM | 0.2 | 0.6 | 61.5 | 1.98 nM | 0.445 µM | 0.3 | 0.056 µM | 2.2 | 0.0214 µM | 5.7 | 0.296 µM | 0.4 | 0.0031 µM | 39.2 | 0.122 µM | 0.122 µM | 1.0 | IC50 [11]: 0.0194 µM; PFSK-1 SI [11]: 6.3 |
| CC[C@@H](C(=O)[C@@H](C)[C@@H](O)[C@H](C)[C@@H]1O[C@@H]([C@@H](CC)C(=O)O)CC[C@@H]1C)[C@H]1O[C@]2(C=C[C@@H](NC(=S)Nc3ccc(Cl)cc3)[C@]3(CC[C@@](C)([C@H]4CC[C@](O)(CC)[C@H](C)O4)O3)O2)[C@H](C)C[C@@H]1C [FLC-00378-1] | 0.00258 µM | 3.9 | 0.0294 µM | 0.3 | 0.3 | 57.0 | 0.18 nM | 0.00412 µM | 2.5 | 0.0184 µM | 0.5 | 0.00321 µM | 3.2 | 0.0366 µM | 0.3 | 0.00055 µM | 18.3 | 0.0101 µM | 0.0191 µM | 0.5 | IC50 [11]: 0.00328 µM; PFSK-1 SI [11]: 3.1 |
